Molecular target: T1, KDM4A (Homo sapiens, UniProt O75164)
T1 construct: N-terminal His-tagged KDM4A^1-350 was purchased from BPS Biosciences; His (N); purchased BPS Biosciences
T1 sequence (O75164 1-350): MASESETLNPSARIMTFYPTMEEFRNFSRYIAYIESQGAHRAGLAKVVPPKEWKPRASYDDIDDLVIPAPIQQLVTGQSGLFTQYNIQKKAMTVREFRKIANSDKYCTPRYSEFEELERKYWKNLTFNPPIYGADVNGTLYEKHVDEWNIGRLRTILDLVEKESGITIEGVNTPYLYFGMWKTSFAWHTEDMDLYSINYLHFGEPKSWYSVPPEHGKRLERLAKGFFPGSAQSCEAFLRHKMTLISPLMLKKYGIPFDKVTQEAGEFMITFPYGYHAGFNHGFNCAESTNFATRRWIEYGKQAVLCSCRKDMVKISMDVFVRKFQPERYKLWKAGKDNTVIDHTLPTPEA
Assay: KDM4A Assay (SAMDI mass spectrometry demethylase assay)
Type: biochemical
Settings: N-terminal His-tagged KDM4A 1-350; class symbols; read-out: 4A IC50
Procedure: N-terminal His-tagged KDM4A^1-350 was purchased from BPS Biosciences. Peptides were synthesized by BioPeptide and all other reagents were purchased from Sigma-Aldrich at the highest level of purity possible. Assays were performed in a 50 μL volume in 384-well V-bottom polypropylene microplates (Greiner) at 25° C. Optimized 1× assay buffer was 50 mM HEPES (pH=8.0), 100 μM sodium ascorbate, 20 mM NaCl, 10 μM ammonium iron sulfate, 1 mM tris(2-carboxyethyl)phosphine (TCEP), 0.002% Tween-20, and 0.005% BSG. For compound screening, 35 μL of KDM4A^1-350 (final concentration, f.c.=5 nM) was added using a Multidrop Combi and preincubated with 1 μL of test compound (f.c.=10 μM) for 30 minutes and subsequently 15 μL of peptide with the following sequence NH2-ARTKQTAR(Kme2)STGGKAPRKQLA(K-Ahx-Biotin)-amide (f.c.=600 nM) and 2-oxoglutarate (f.c.=5 μM) was added by Multidrop Combi to begin the reaction. Reactions proceeded for 120 minutes and were stopped by the addition of 5 μL of formic acid (f.c.=0.5%) using a Multidrop Combi and then analyzed by SAMDI Tech Inc.
SAMDI Tech analyzed all reactions using self-assembled monoloayer desorption/ionization technology as previously described (Gerard-Levin Z A, Scholle M D, Eisenberg A H, et al.: High-throughput screening of small molecule libraries using SAMDI mass spectrometry. ACS Comb Sci 2011; 13:347-350). Briefly, a 2 μL sample of the stopped demethylase reactions were transferred to a SAMDI array coated with 384 biotin-neutravidin spots using a 384-channel pipet station. The SAMDI arrays were incubated for 1 h in a humidified chamber, followed by washing of the surface with deionized ultra-filtered water (DIUF) and drying under nitrogen. A matrix of 30 mg/ml 2′,4′,6′-Trihydroxyacetophenone monohydrate (THAP) in acetone was applied using a TPP Mosquito 1.2 μL tip by dispensing 50 nL on each of the 384 spots on the array. SAMDI-MS was run using acquisition method ReflectorPositiveUTX. The % conversion of substrate to product was calculated using the AUC of the substrate and product peptide peaks.
An IC50 value was determined by contacting various concentrations of a test compound with one of the KDM4A, KDM4C or KDMSC enzyme constructs and plotting a dose-response curve which associates the amount of inhibition of the enzyme relative to the concentration of the test compound. From the curve, the IC50 value (which represents the concentration of the test compound necessary to inhibit maximal enzymatic activity by 50%) was determined. Additionally, the slope of the linear range of the plotted curve, which indicates the speed with which the curve rises between the minimum and maximum, was calculated.

With `Cc1nn(CCN(C)C)cc1Nc1cnccc1C(=O)O` [Compound 107, 3-(1-(2-(dimethylamino)ethyl)-3-methyl-1H-pyrazol-4-ylamino) isonicotinic acid] the IC50 was 100 to 1000 nM.
In the case of `COc1ccccc1-n1cc(C)c(Nc2cnccc2C(=O)O)n1` [Compound 63, 3-((1-(2-methoxyphenyl)-4-methyl-1H-pyrazol-3-yl)amino) isonicotinic acid], the IC50 is reported as 100 to 1000 nM.
`Cn1cc(-c2ccc(F)cc2)c(Nc2cnccc2C(=O)O)n1` [Compound 7, 3-((4-(4-Fluorophenyl)-1-methyl-1H-pyrazol-3-yl)amino) isonicotinic acid] gave an IC50 of 100 to 1000 nM.
For `CC(C)n1nc(-c2ccccc2)cc1Nc1cnccc1C(=O)O` [Compound 22, 3-((1-Isopropyl-3-phenyl-1H-pyrazol-5-yl)amino)isonicotinic acid], the IC50 was 100 to 1000 nM.
`Cc1c(Nc2cnccc2C(=O)O)cnn1C1CCNCC1` [Compound 68, 3-((5-methyl-1-(piperidin-4-yl)-1H-pyrazol-4-yl)amino)isonicotinic acid] showed an IC50 of 100 to 1000 nM.
`Cc1nn(-c2ccccc2)cc1Nc1cnccc1C(=O)O` [Compound 19, 3-((3-Methyl-1-phenyl-1H-pyrazol-4-yl)amino)isonicotinic acid] gave an IC50 of 1 to 100 nM.
With `Cc1c(Nc2cnccc2C(=O)O)cnn1C1CCN(C2CCC2)CC1` [Compound 96] the IC50 was 1 to 100 nM.
`Cc1nn(C2CCNCC2)cc1Nc1cnccc1C(=O)O` [Compound 69, 3-((3-methyl-1-(piperidin-4-yl)-1H-pyrazol-4-yl)amino) isonicotinic acid] gave an IC50 of 100 to 1000 nM.
`O=C(O)c1ccncc1Nc1cn(CCN2CCC(F)(F)CC2)nc1-c1ccccc1` [Compound 17, 3-((1-(2-(4,4-Difluoropiperidin-1-yl)ethyl)-3-phenyl-1H-pyrazol-4-yl)amino)isonicotinic acid] showed an IC50 of 1000 to 10000 nM.
Work on `Cn1cc(-c2ccccc2F)c(Nc2cnccc2C(=O)O)n1` [Compound 11, 3-((4-(2-Fluorophenyl)-1-methyl-1H-pyrazol-3-yl)amino) isonicotinic acid] yielded an IC50 of 100 to 1000 nM.
Work on `O=C(O)c1ccncc1Nc1nn(C2CCOCC2)cc1-c1ccccc1` [Compound 72, 3-((4-phenyl-1-(tetrahydro-2H-pyran-4-yl)-1H-pyrazol-3-yl)amino)isonicotinic acid] yielded an IC50 of 1000 to 10000 nM.
With `Cn1cc(Nc2cnccc2C(=O)O)c(-c2ccccc2)n1` [Compound 13, 3-((1-methyl-3-phenyl-1H-pyrazol-4-yl)amino) isonicotinic acid] the IC50 was 1000 to 10000 nM.
`CN(C)CCCn1cc(-c2ccccc2)c(Nc2cnccc2C(=O)O)n1` [Compound 51, 3-((1-(3-(dimethylamino)propyl)-4-phenyl-1H-pyrazol-3-yl)amino) isonicotinic acid] gave an IC50 of 1 to 100 nM.
`Cn1nc(-c2ccccc2)cc1Nc1cnccc1C(=O)O` [Compound 6] was tested, and the IC50 was 100 to 1000 nM.
`O=C(O)c1ccncc1Nc1cc(-c2ccccc2)nn1[C@H]1CC[C@@H](O)CC1` [Compound 40, 3-((1-((cis)-4-Hydroxycyclohexyl)-3-phenyl-1H-pyrazol-5-yl)amino)isonicotinic acid] showed an IC50 of 1000 to 10000 nM.
`O=C(O)c1ccncc1Nc1cc(-c2ccccc2)nn1-c1ccccc1` [Compound 21, 3-((1,3-Diphenyl-1H-pyrazol-5-yl)amino)isonicotinic acid] was tested, and the IC50 was 1000 to 10000 nM.
Molecule `Cn1ncc(-c2cccc(F)c2)c1Nc1cnccc1C(=O)O` [Compound 10, 3-((4-(3-Fluorophenyl)-1-methyl-1H-pyrazol-5-yl)amino) isonicotinic acid] has an IC50 of 1000 to 10000 nM.
Work on `Cc1c(-c2ccccc2)nn(C)c1Nc1cnccc1C(=O)O` [Compound 53, 3-((1,4-dimethyl-3-phenyl-1H-pyrazol-5-yl)amino)isonicotinic acid] yielded an IC50 of 100 to 1000 nM.
`O=C(O)c1ccncc1Nc1c(-c2ccccc2)cnn1-c1ccccc1` [Compound 43, 3-((1,4-Diphenyl-1H-pyrazol-5-yl)amino)isonicotinic acid] was tested, and the IC50 was 10000 to 100000 nM.
`Cc1c(Nc2cnccc2C(=O)O)cnn1C1CCCN(C)CC1` (stereo not drawn) [Compound 112, 3-((5-methyl-1-(1-methylazepan-4-yl)-1H-pyrazol-4-yl)amino)isonicotinic acid] gave an IC50 of 100 to 1000 nM.
Molecule `Cn1cc(-c2ccccc2)c(Nc2cnccc2C(=O)O)n1` [Compound 3] has an IC50 of 1000 to 10000 nM.
In the case of `O=C(O)c1ccncc1Nc1nn(CCN2CCC(F)(F)CC2)cc1C1CCCCC1` [Compound 57, 3-((4-cyclohexyl-1-(2-(4,4-difluoropiperidin-1-yl)ethyl)-1H-pyrazol-3-yl)amino)isonicotinic acid], the IC50 is reported as 100 to 1000 nM.
`Cn1nc(-c2ccc(Cl)cc2)cc1Nc1cnccc1C(=O)O` [Compound 24, 3-((3-(4-Chlorophenyl)-1-methyl-1H-pyrazol-5-yl)amino) isonicotinic acid] showed an IC50 of 100 to 1000 nM.
For `N[C@H]1CC[C@H](n2nc(-c3ccccc3)cc2Nc2cnccc2C(=O)O)CC1` [Compound 38, 3-((1-((trans)-4-aminocyclohexyl)-3-phenyl-1H-pyrazol-5-yl)amino)isonicotinic acid], the IC50 was 10000 to 100000 nM.
`Cn1ncc(-c2ccccc2F)c1Nc1cnccc1C(=O)O` [Compound 12, 3-((4-(2-fluorophenyl)-1-methyl-1H-pyrazol-5-yl)amino) isonicotinic acid] gave an IC50 of 100 to 1000 nM.
For `Cc1c(Nc2cnccc2C(=O)O)cnn1C1CCN(C(=O)c2ccccc2)CC1` [Compound 98, 3-(1-(1-benzoylpiperidin-4-yl)-5-methyl-1H-pyrazol-4-ylamino) isonicotinic acid], the IC50 was 100 to 1000 nM.
Molecule `O=C(O)c1ccncc1Nc1c(-c2ccccc2)cnn1CCN1CCC(F)(F)CC1` [Compound 15, 3-((1-(2-(4,4-difluoropiperidin-1-yl)ethyl)-4-phenyl-1H-pyrazol-5-yl)amino)isonicotinic acid] has an IC50 of 10000 to 100000 nM.
`O=C(O)c1ccncc1Nc1nn(-c2ccccc2)cc1-c1ccccc1` [Compound 42, 3-((1,4-diphenyl-1H-pyrazol-3-yl)amino)isonicotinic acid] gave an IC50 of 100 to 1000 nM.
With `CN1CCN(CCn2ncc(-c3ccccc3)c2Nc2cnccc2C(=O)O)CC1` [Compound 35, 3-((1-(2-(4-methylpiperazin-1-yl)ethyl)-4-phenyl-1H-pyrazol-5-yl)amino)isonicotinic acid] the IC50 was 100 to 1000 nM.
With `CNC(=O)c1ccc(-n2ncc(Nc3cnccc3C(=O)O)c2C)cc1` [Compound 58, 3-((5-methyl-1-(4-(methylcarbamoyl)phenyl)-1H-pyrazol-4-yl)amino) isonicotinic acid] the IC50 was 1 to 100 nM.
For `O=C(O)c1ccncc1Nc1cn(-c2ccccc2)nc1-c1ccccc1` [Compound 41, 3-((1,3-Diphenyl-1H-pyrazol-4-yl)amino)isonicotinic acid], the IC50 was 100 to 1000 nM.
In the case of `O=C(O)c1ccncc1Nc1cc(-c2ccccc2)nn1-c1ccncc1` [Compound 56, 3-((3-phenyl-1-(pyridin-4-yl)-1H-pyrazol-5-yl)amino) isonicotinic acid], the IC50 is reported as 100 to 1000 nM.
For `Cc1cn(-c2ccccc2C#N)nc1Nc1cnccc1C(=O)O` [Compound 71, 3-((1-(2-cyanophenyl)-4-methyl-1H-pyrazol-3-yl)amino) isonicotinic acid], the IC50 was 100 to 1000 nM.
With `O=C(O)c1ccncc1Nc1cc(-c2ccccc2)nn1C1CCOCC1` [Compound 23, 3-((3-Phenyl-1-(tetrahydro-2H-pyran-4-yl)-1H-pyrazol-5-yl)amino)isonicotinic acid] the IC50 was 1000 to 10000 nM.
`Cc1cc(Nc2cnccc2C(=O)O)n(C2CCOCC2)n1` [Compound 78, 3-((3-methyl-1-(tetrahydro-2H-pyran-4-yl)-1H-pyrazol-5-yl)amino) isonicotinic acid] was tested, and the IC50 was 100 to 1000 nM.
With `O=C(O)c1ccncc1Nc1c(-c2ccc(F)cc2)cnn1CCN1CCC(F)(F)CC1` [Compound 46, 3-((1-(2-(4,4-difluoropiperidin-1-yl)ethyl)-4-(4-fluorophenyl)-1H-pyrazol-5-yl)amino) isonicotinic acid] the IC50 was 1000 to 10000 nM.

— patent US20170291890A1 (Epizyme, Inc., priority 2014, published 2017)
